The results in this text go back to ChEMBL document CHEMBL1201862, “PubChem BioAssay data set” (2004).

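Each compound was tested at five concentrations against cells in 96-well plates for 48 hours. Abbreviation: GI50, concentration required for 50% inhibition of growth.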 The source made the active and inactive calls. Rule as the data show it: active = GI50 up to about 1.1 µM and inactive = higher. Where only a bound is given, the exact number is not on record here.

Among the test systems are RXF 393; UACC-257; NCI-H460; OVCAR-5; T47D; Malme-3M; NCI/ADR-RES; UACC-62; BT-549; SW-620; OVCAR-3; HT-29; MCF7; PC-3; SK-MEL-5; SF-268; HOP-62; M14; DU-145; CAKI-1.
Assay in all cases: inhibition of tumour cell growth, NCI panel, 48 h

Take `COC(=O)C(Cc1c[nH]c2ccccc12)NP(=O)(O)OCC1OC(n2cc(F)c(=O)[nH]c2=O)CC1O` (centres undefined): the GI50 was > 100 µM (inactive) in the experiment with RXF 393; > 100 µM (inactive) in the experiment with UACC-257; 1.14 µM (inactive) in the experiment on NCI-H460; > 100 µM (inactive) with OVCAR-5; > 32.5 µM (inactive) in the experiment on T47D; > 100 µM (inactive) with Malme-3M. Moreover, the GI50 in the experiment on NCI/ADR-RES is 37.2 µM (inactive); in the experiment with UACC-62, > 26.5 µM (inactive); in the experiment with BT-549, > 100 µM (inactive); in the experiment with SW-620, > 100 µM (inactive); with OVCAR-3, > 100 µM (inactive); in the experiment with HT-29 it was > 100 µM (inactive). For the same compound, the GI50 with MCF7 is 7.35 µM (inactive); with PC-3 it was > 51.1 µM (inactive); in the experiment on SK-MEL-5 it was 77.3 µM (inactive); in the experiment on SF-268, 4.94 µM (inactive); in the experiment with HOP-62, 25.9 µM (inactive); with M14, 30.8 µM (inactive). Further, the GI50 in the experiment with DU-145 was 43.9 µM (inactive).
With `COc1ccc2oc(=O)c3c(c2c1C)OC(C)(C)C=C3`, the GI50 in the experiment with CAKI-1, with UACC-257, in the experiment on NCI-H460, in the experiment with OVCAR-5, with T47D and in the experiment with Malme-3M was > 100 µM (inactive) throughout. Further, the GI50 with NCI/ADR-RES, with UACC-62, with BT-549, in the experiment on SW-620, with OVCAR-3 and in the experiment on HT-29 was > 100 µM (inactive) each time. Further, the GI50 was > 100 µM (inactive) in the experiment on MCF7; > 100 µM (inactive) with PC-3; > 100 µM (inactive) in the experiment on SK-MEL-5; 23.2 µM (inactive) in the experiment with SF-268; > 100 µM (inactive) with HOP-62; > 100 µM (inactive) in the experiment on M14. For the same compound, in the experiment with DU-145, the GI50 was > 100 µM (inactive).
As to `CCn1c(CCl)nc2c1C(=O)c1ccccc1C2=O`, the GI50 in the experiment on RXF 393 is 1.85 µM (inactive); in the experiment with UACC-257, 1.67 µM (inactive); in the experiment on NCI-H460, 1.98 µM (inactive); with OVCAR-5, 1.84 µM (inactive); in the experiment with T47D it was 1.95 µM (inactive); with Malme-3M, 1.04 µM (active). For the same compound, the GI50 in the experiment with NCI/ADR-RES was 2.48 µM (inactive); in the experiment with UACC-62 it was 1.28 µM (inactive); with BT-549 it was 2.18 µM (inactive); with SW-620, 1.33 µM (inactive); in the experiment on OVCAR-3 it was 1.69 µM (inactive); in the experiment on HT-29, 1.78 µM (inactive). Also, the GI50 in the experiment on MCF7 is 1.87 µM (inactive); in the experiment on PC-3, 1.91 µM (inactive); in the experiment with SK-MEL-5, 0.42 µM (active); in the experiment on SF-268 it was 2.61 µM (inactive); in the experiment on HOP-62 it was 2.42 µM (inactive); in the experiment with M14 it was 1.63 µM (inactive). The GI50 in the experiment on DU-145 is 2.67 µM (inactive).
With `O=[N+]([O-])c1ccc(-c2cn(-c3ccc(Cl)cc3)cn2)cc1`, the GI50 in the experiment with CAKI-1 was > 100 µM (inactive); in the experiment with UACC-257, > 100 µM (inactive); in the experiment with NCI-H460, 18.5 µM (inactive); in the experiment with OVCAR-5, > 100 µM (inactive); in the experiment with T47D, 44.2 µM (inactive); in the experiment with Malme-3M, > 100 µM (inactive). Further, the GI50 with NCI/ADR-RES is 36.6 µM (inactive); in the experiment on UACC-62 it was 92 µM (inactive); with BT-549, 59.2 µM (inactive); in the experiment on SW-620 it was > 100 µM (inactive); in the experiment on OVCAR-3, 19.1 µM (inactive); with HT-29, > 100 µM (inactive). The GI50 with MCF7 is 71.6 µM (inactive); with PC-3 it was > 100 µM (inactive); in the experiment on SK-MEL-5 it was 34.2 µM (inactive); with SF-268, 14.2 µM (inactive); in the experiment on HOP-62 it was 18.2 µM (inactive); with M14 it was > 100 µM (inactive). Moreover, the GI50 in the experiment on DU-145 was > 100 µM (inactive).
As to `COc1ccc(/N=c2/oc3ccccc3cc2C(N)=O)cc1`, the GI50 with RXF 393 is 40.5 µM (inactive); in the experiment with CAKI-1, 13.6 µM (inactive); in the experiment on UACC-257 it was > 100 µM (inactive); in the experiment with NCI-H460, > 100 µM (inactive); in the experiment on T47D, > 100 µM (inactive); in the experiment with NCI/ADR-RES it was 39 µM (inactive). Besides, the GI50 was 34.8 µM (inactive) with UACC-62; 32.3 µM (inactive) in the experiment on BT-549; > 100 µM (inactive) with SW-620; > 100 µM (inactive) in the experiment on OVCAR-3; > 100 µM (inactive) with HT-29; 22.5 µM (inactive) in the experiment on MCF7. Further, the GI50 in the experiment with PC-3 is 80 µM (inactive); in the experiment on SK-MEL-5, > 100 µM (inactive); with SF-268 it was 17.9 µM (inactive); in the experiment on HOP-62, 17.2 µM (inactive); in the experiment with M14, 55.2 µM (inactive); in the experiment with DU-145 it was > 100 µM (inactive).
On to `CN1/C(=C\N=O)C(C)(C)N(O)C1(C)C`, for which the GI50 in the experiment on CAKI-1, in the experiment with UACC-257, with NCI-H460, in the experiment with OVCAR-5, in the experiment on T47D and in the experiment on Malme-3M was > 100 µM (inactive) in each case. The GI50 with NCI/ADR-RES, in the experiment on UACC-62, in the experiment on BT-549, in the experiment on SW-620, in the experiment on OVCAR-3 and in the experiment with HT-29 was > 100 µM (inactive) throughout. The GI50 in the experiment with MCF7, in the experiment on PC-3, in the experiment on SK-MEL-5, in the experiment on SF-268, in the experiment on HOP-62 and with M14 was > 100 µM (inactive) each time. Further, in the experiment on DU-145, the GI50 is > 100 µM (inactive).
For `O=C1CC(Sc2nc3ccc(I)cc3c(=O)n2Cc2ccccc2)C(=O)NN1` (centres undefined), the GI50 in the experiment with CAKI-1 is 2.81 µM (inactive); in the experiment on UACC-257 it was 18.3 µM (inactive); in the experiment on NCI-H460 it was 22.8 µM (inactive); in the experiment on OVCAR-5, 17.9 µM (inactive); in the experiment on T47D it was 15.2 µM (inactive); in the experiment with Malme-3M it was 18.1 µM (inactive). Further, the GI50 with NCI/ADR-RES is 20.2 µM (inactive); in the experiment on UACC-62 it was 15.3 µM (inactive); with BT-549, 15.7 µM (inactive); in the experiment with SW-620, 18 µM (inactive); with OVCAR-3, 16 µM (inactive); in the experiment with HT-29, 18.6 µM (inactive). Moreover, the GI50 in the experiment with MCF7 is 15 µM (inactive); in the experiment with PC-3 it was 17 µM (inactive); with SK-MEL-5, 16.2 µM (inactive); in the experiment with SF-268, 15.9 µM (inactive); in the experiment with HOP-62 it was 17.4 µM (inactive); in the experiment on M14 it was 19.6 µM (inactive). Besides, in the experiment with DU-145, the GI50 is 20 µM (inactive).
Consider `CCOP(=O)(O)CN1CCNCCN(CP(=O)(O)OCC)CCNCC1`, for which the GI50 in the experiment on RXF 393, in the experiment with CAKI-1, in the experiment on UACC-257, in the experiment on NCI-H460, with OVCAR-5 and with T47D was > 100 µM (inactive) each time. Further, the GI50 is > 100 µM (inactive) in the experiment with NCI/ADR-RES; > 100 µM (inactive) in the experiment with UACC-62; > 100 µM (inactive) in the experiment on BT-549; > 100 µM (inactive) in the experiment with SW-620; > 100 µM (inactive) with OVCAR-3; 61.9 µM (inactive) in the experiment on HT-29. The GI50 in the experiment with MCF7, in the experiment with PC-3, in the experiment with SK-MEL-5, in the experiment on HOP-62 and in the experiment with DU-145 was > 100 µM (inactive) throughout.
